# Experimental data: PubChem BioAssay (NCI)
# Values joined by “and” are separate entries in the source; they are usually repeats but may differ in a detail not shown here. Identical values can stand only once.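 Protocol summary: plate cells (96-well), add compound at 5 concentrations, incubate 48 h, interpolate endpoints linearly. GI50 marks 50% less growth. TGI: concentration producing complete growth inhibition.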
# Tests used:
# Experiment in all cases: inhibition of tumour cell growth, NCI panel, 48 h
# [1] = tested on: HL-60(TB) leukemia
# [2] = tested on: HT29 colon
# [3] = tested on: LOX IMVI melanoma
# [4] = tested on: MALME-3M melanoma
# [5] = tested on: MDA-MB-231 breast
# [6] = tested on: NCI-H460 lung
# [7] = tested on: RPMI-8226 leukemia
# [8] = tested on: SF-268 CNS
# [9] = tested on: SF-295 CNS
# [10] = tested on: SK-MEL-5 melanoma
SMILES,GI50 [1],TGI [1] [µM],GI50 [2] [µM],TGI [2] [µM],GI50 [3] [µM],TGI [3] [µM],GI50 [4] [µM],TGI [4] [µM],GI50 [5],TGI [5],GI50 [6] [µM],TGI [6] [µM],GI50 [7],TGI [7] [µM],GI50 [8] [µM],TGI [8] [µM],GI50 [9] [µM],TGI [9] [µM],GI50 [10],TGI [10] [µM]
Oc1ccccc1C=Nc1nc(SCc2ccccc2)nc2[nH]ncc12,26.1 µM,95.7,54.6,> 100,56.3,> 100,34.8,> 100,29.2 µM,> 100 µM,36.9,> 100,30.8 µM,> 100,28.2,> 100,52,> 100,11.9 µM,26.3
O=P(CCCCP(=O)(c1ccccc1)c1ccccc1)(c1ccccc1)c1ccccc1.[Cl][Sn]([Cl])([c]1ccccc1)[c]1ccccc1,2.04 µM,6.61,1.89,4.01,1.29,5.45,1.41,3.1,0.626 µM,2.11 µM,6.51,15.9,0.332 µM,1.16,1.75,4.05,6.36,18.3,1.9 µM,4.07
Cc1cc(=O)[nH]c2cc3c(c4c(n3Cc3ccc(Cl)cc3Cl)CC(C)(C)CC4=O)c(O)c12,> 100 µM,> 100,> 100,> 100,> 100,> 100,29.9,75.9,> 100 µM,> 100 µM,79.5,> 100,> 100 µM,> 100,76.1,> 100,16.4,63.5,16.3 µM,31.8
C=C1C(=O)O[C@H]2[C@H](OC(C)=O)[C@@H](C)CCC/C(C)=C/CC[C@@]3(C)O[C@@H]3C[C@@H]12,–,2.38,–,8.05,–,3.9,–,30.6,–,10.6 µM,–,19.7,–,6.5,–,14,–,28.5,–,15.5
COc1ccc(NC(=O)COCCOCCNC[C@@H]2C(=O)O[C@H]3[C@H]2CC/C(COC(=O)OC/C2=C/CC[C@@]4(C)O[C@H]4[C@H]4OC(=O)[C@@H](CN(C)C)[C@@H]4CC2)=C\CC[C@@]2(C)O[C@@H]32)c(O)c1C(N)=O,0.77 µM,1.91,1.71,5.77,5.31,11.4,1.52,4.12,5.03 µM,11.3 µM,16.5,> 50,1.42 µM,4.21,8.7,18.7,> 50,> 50,8.79 µM,17.3
C=C(C)[C@@H]1CC[C@]2(C)[C@H](CC=C3[C@@H]4[C@@H](C)[C@H](C)CC[C@]4(C(N)=O)CC[C@]32C)[C@@]1(C)CCC#N,2.35 µM,6.03,3.34,21.1,7.06,20.1,5.69,27.9,8.75 µM,42.8 µM,8.35,29.6,2.18 µM,6.27,4.52,> 100,4.44,> 100,2.71 µM,8.16
COC(=O)CCC1CCC(c2cc(F)ccc2F)(S(=O)(=O)c2ccc(Cl)cc2)CC1 (stereo unspecified),45.3 µM,> 100,82.2,> 100,91.5,> 100,67.1,> 100,> 100 µM,> 100 µM,52.1,> 100,41.9 µM,> 100,> 100,> 100,> 100,> 100,28.4 µM,> 100
C=C1C(=O)O[C@H]2[C@H]1CCC(/C=N/c1ncc(Br)cc1N)=C\CC[C@@]1(C)O[C@@H]21,0.494 µM,3.29,1.93,5.52,1.71,3.46,1.55,3.6,1.38 µM,3.46 µM,5.81,22.3,1.13 µM,5.01,2.86,11.1,10.4,24.3,1.55 µM,3.01
COc1ccc(S(=O)(=O)Nc2cc(/C=C\c3cc(OC)c(OC)c(OC)c3)ccc2OC)cc1,0.195 µM,0.681,0.0809,8.22,0.272,> 100,0.0527,61.1,0.399 µM,> 100 µM,0.178,11.7,0.319 µM,3.83,0.401,> 100,0.0393,70.9,0.0488 µM,0.778
COC(=O)C1CCCN1C(=O)[C@@H]1CCCN1C(=O)[C@H](Cc1c[nH]c2ccccc12)NC(=S)Nc1cc(C(F)(F)F)cc(C(F)(F)F)c1 (stereo partly specified),2.35 µM,5.95,1.89,3.44,1.91,4.28,3.35,12.7,1.62 µM,3.4 µM,1.94,3.79,2.93 µM,8,3.46,13.6,1.77,4.08,2.63 µM,7.61
N#CC1=C(N)Oc2c(sc3c(Br)cccc23)C1c1ccc(Br)cc1 (stereo unspecified),0.28 µM,0.788,0.315,1.21,0.747,3.95,1.39,20.7,1.21 µM,3.7 µM,0.668,4.51,1.44 µM,16,1.15,10,0.38,2.85,2.21 µM,14.6
CC(C)c1c(O)ccc2c1CCC1C(C)(C)CCCC21C (stereo unspecified),–,52.3,–,32.1,–,31.1,–,35.6,–,36.5 µM,–,31.7,–,49.3,–,35.5,–,32.5,–,29.9
COc1ccc(-n2cc(-c3cc(OC)c(OC)c(OC)c3)nc2SCc2ccccc2)cc1OC,48.2 µM,> 100,> 100,> 100,59.3,> 100,> 100,> 100,> 63.6 µM,> 100 µM,> 100,> 100,25.8 µM,> 100,> 100,> 100,> 100,> 100,15.6 µM,> 100
Oc1ccccc1CNCC12CC3CC(CC(C3)C1)C2,22 µM,53.3,15.2,47.7,20.6,76,21.2,48.8,27.7 µM,> 100 µM,23.3,57.7,18.1 µM,45,46.8,> 100,19.3,42.2,13.5 µM,26.9
Cc1cc(Cc2cc(C)cc(C(C)(C)C)c2O)c(O)c(Cc2cc(C)cc(C(C)(C)C)c2O)c1,–,5.23,–,7.78,–,10.9,–,5.13,–,4.25 µM,–,4.22,–,> 20.4,–,9.92,–,10.1,–,2.62
CCC[CH2][Sn]([CH2]CCC)([CH2]CCC)[O]C(=O)c1ccc(Cl)cc1Cl,0.187 µM,0.494,0.125,0.283,0.148,0.303,0.111,0.258,0.129 µM,0.326 µM,0.143,0.299,0.146 µM,–,0.134,0.283,0.197,0.375,0.143 µM,0.276
OC(CNCC1CCCO1)Cn1c2ccc(Cl)cc2c2cc(Cl)ccc21 (stereo unspecified),2.3 µM,5.51,1.94,3.72,1.65,3,1.93,3.94,1.75 µM,3.5 µM,1.95,3.75,2.69 µM,6.2,1.87,3.77,1.78,3.57,1.77 µM,3.26
O=C1C2C(c3ccccc3)NC(c3ccccc3)C1C(c1ccccc1)NC2c1ccccc1 (stereo unspecified),–,> 100,–,> 100,–,> 100,–,> 100,–,> 100 µM,–,> 100,–,> 100,–,> 100,–,> 100,–,> 100
O=C(O)C1C(C(=O)O)C23CC2(C(=O)O)C2(C(=O)O)CCC3=C3CCCC312 (stereo unspecified),–,18.3,–,44.8,–,28.1,–,15.2,–,41 µM,–,20,–,37.9,–,22.5,–,20.8,–,18.2
O=C(c1ccccc1)C(Br)C(Br)c1cccc([N+](=O)[O-])c1 (stereo unspecified),2.04 µM,4.68,3.45,> 100,1.36,2.77,2,3.84,1.96 µM,3.79 µM,3.12,14.9,2.15 µM,6.24,2.47,6.77,10.8,24,2.89 µM,10.8
COc1cc(/C=C/C(=O)c2c(C)nc3ccccc3c2/C=C/c2ccc(C)cc2)cc(OC)c1OC,2.22 µM,6.29,2.81,14,1.45,2.76,1.85,3.52,2.14 µM,5.23 µM,2.06,5.09,2.56 µM,7.87,2.21,6.42,2.19,5.4,1.75 µM,3.24
CNC(=O)CC1NC(=O)c2csc(n2)-c2ccc(-c3nc(C4=NC(C(=O)N5CCCC5C(N)=O)CO4)cs3)nc2-c2csc(n2)-c2csc(n2)C(C(C)C)NC(=O)CNC(=O)c2csc(n2)C(C(C)C)NC(=O)c2nc1sc2C (stereo unspecified),< 0.001 µM,–,< 0.001,–,> 25,> 25,–,> 25,> 25 µM,2.73 µM and > 25 µM,> 25,> 25,< 0.001 µM,–,> 25,> 25,> 25,> 25,> 25 µM,> 25
Clc1ccc2nnnn2n1,1.94 µM,5.14,2.93,8.03,3.64,> 100,12.1,31.4,2.64 µM,7.01 µM,3.26,12,3.54 µM,28,3.74,37.2,4.05,> 100,2.24 µM,6.19
Oc1[nH]c2c(Br)cccc2c1C1=Nc2ccccc2/C1=N/OCCN1CCCC1,1.04 µM and 0.998 µM,–,0.561,6.6,0.626,2.45,1.16,4.84,1.31 µM and 1.21 µM,4.95 µM and 7.97 µM,0.325,2.4,1.35 µM and 1.59 µM,–,0.813,–,0.638,3.69,1.06 µM and 0.751 µM,–
CC(C)COCC(CN(Cc1ccccc1)c1ccccc1)N1CCCC1 (stereo unspecified),3.09 µM,7.56,1.46,4.17,2.48,8.2,1.89,4.74,1.84 µM,5.22 µM,2.54,8.14,1.91 µM,5.41,4.01,16.1,2.02,6.5,1.65 µM,3.01
COc1ccc(C(=O)/C=C/c2ccc3c(c2)OCO3)c(OCc2ccccc2)c1,–,6.47,–,> 100,–,> 100,–,> 100,–,> 100 µM,–,> 100,–,76.6,–,> 100,–,> 100,–,> 100
